pEC50, pIC50, pKi: −log10 of the molar value.

In series [1] the target is Sigma-2 receptors on membranes from rat cerebral cortex (Rattus norvegicus (Rat), UniProt Q5U3Y7). The series can be described thus: Competitive Radioligand Binding Assay 1, Sigma-2 binding ([3H]DTG displacement with (+)pentazocine mask). The settings on record: sigma-2 receptor affinity; read-out: S2 Ki. How it is done:
Using the same protocol, some compounds for which membrane trafficking data are given in Table 1 were tested for recognition of sigma-2 receptor. Certain compounds preferentially bind to the sigma-2 receptor.
(§1) For Sigma-1 binding, various concentrations of test compounds from 100 μM to 1 nM were used to displace 8 nM [3H](+)pentazocine from endogenous receptors on Jurkat cell membranes (Ganapathy M E et al. 1991, J Pharmacol. Exp. Ther. 289:251-260). 10 μM Haloperidol was used to define non-specific binding. […] (Bowen W D, et al. 1993, Mol. Neuropharmcol 3:117-126). 10 μM Haloperidol was used to define non-specific binding. Reactions were terminated by rapid filtration through Whatman GF/C filters using a Brandel 12R cell harvester followed by two washes with ice-cold buffer. Radioactivity on the dried filter discs was measured using a liquid scintillation analyzer (Tri-Carb 2900TR; PerkinElmer Life and Analytical Sciences). The displacement curves were plotted and the Ki values of the test compounds for the receptor subtypes were determined using GraphPad Prism (GraphPad Software Inc., San Diego, Calif.). The percentage specific binding was determined by dividing the difference between total bound (disintegrations per minute) and nonspecific bound (disintegrations per minute) by the total bound (disintegrations per minute).
Affinities for Sigma-1 and Sigma-2 receptors are typically obtained from published studies using cerebral tissue homogenates with [3H](+)pentazocine to measure displacement from Sigma-1 receptors and [3H] 1,3-Di-(2-tolyl)guanidine in the presence of 300 nM (+)pentazocine to measure displacement from Sigma-2 receptors.

The target in series [2] is Sigma-1 receptors on Jurkat cell membranes (Homo sapiens (Human), UniProt Q99720). Briefly: Competitive Radioligand Binding Assay 1, Sigma-1 binding ([3H](+)pentazocine displacement). The following applies: sigma-1 receptor affinity; read-out: S1 Ki. The protocol: Certain compounds were tested for interaction with several receptors by blocking the binding or action of their agonists or antagonists. Some compounds were tested to see whether they interact directly with known cellular receptor or signaling proteins. Compounds can be tested for the ability to displace binding of known agonists or antagonists of a given human receptor that was overexpressed in cell lines or isolated from tissue. Compounds can also be tested for the ability to block downstream signaling induced by agonists or antagonists of a given human receptor. Compounds can be tested for action at 100 known receptors, and it is desirable that specific activity will occur at only a small subset of CNS-relevant receptors.
as §1, with “minute). […]” for “minute).”

Series [3] can be described thus: log P. It is filed as physicochemical. A digest of the protocol:
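Ratio of un-ionized compound concentrations between octanol and water, with aqueous pH set so the un-ionized form predominates. Value given as the log of the octanol/water ratio.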

Series [4] has as its target potassium channel hERG (Homo sapiens (Human), UniProt Q12809). The series can be described thus: In vitro testing for hERG inhibition. It is filed as biochemical. The following applies: in vitro toxicity potassium channel hERG. The protocol:
In vitro testing for hERG inhibition was performed in a standard assay (See: Haverkamp W, Breithardt G, Carnm A J, Janse M J, Rosen M R, Antzelevitch C, Escande D, Franz M, Malik M, Moss A and Shah R. (2000) Eur Heat J 21 (15); 1216-31).

Series [5] deals with Abeta oligomer-induced membrane trafficking deficits in primary hippocampal neurons. Briefly: Membrane Trafficking/Exocytosis (MTT) assay, Abeta oligomer effect on neurons.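 Also: compound potency for inhibiting the Abeta oligomer effect on exocytosis.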 It is filed as cell-based, rat. The following applies: membrane trafficking; read-out: EC50 Abeta. The protocol: Compounds according to any embodiment described herein, were tested for their ability to inhibit an amyloid beta effect on the cells. The compounds generally were able to inhibit the amyloid beta effect as measured by a membrane trafficking/exocytosis assay (MTT assay). The rationale for this assay was as follows:
The present exocytosis assay was adapted for use with mature primary neuronal cultures grown for 3 weeks in vitro. See WO 2011/106785, which is incorporated herein by reference in its entirety. Abeta oligomers cause a dose-dependent decrease in the amount of intracellular vesicles (puncta) filled with reduced purple formazan as measured via image processing using a Cellomics VTI automated microscopy system. […] Increasing the amount of Abeta oligomers eventually results in overt toxicity. Thus, the concentration of neuroactive Abeta oligomers used in the assay is much lower than that causing cell death. […] When configured in this manner, the assay is able to detect compounds that inhibit nonlethal effects of Abeta oligomer whether these compounds act via disruption of oligomers, inhibition of oligomer binding to neurons, or counteraction of signal transduction mechanisms of action initiated by oligomer binding.
Primary hippocampal neurons from E18 Sprague-Dawley rat embryos were plated at optimized concentrations in 384 well plates in NB media (Invitrogen). Neurons were maintained in cultures for 3 weeks, with twice weekly feeding of NB media with N2 supplement (Invitrogen).
A test compound was added to cells at concentrations ranging from 100 uM to 0.001 nM followed by addition of vehicle or Abeta oligomer preparations (3 μM total Abeta protein concentration), and incubated for 1 to 24 hr at 37° C. in 5% CO2. MTT reagent (3-(4,5-dimethylthizaol-2yl)-2,5diphenyl tetrazolium bromide) (Roche Molecular Biochemicals) was reconstituted in phosphate buffered saline to 5 mg/mL. 10 μL of MTT labeling reagent is added to each well and incubated at 37° C. for 1 h, then imaged. Exocytosis was assessed by automated microscopy and image processing to quantify the amount of endocytosed and exocytosed formazan.
Each assay plate was formatted so that compounds are tested with and without Abeta oligomer on each plate. This design eliminates toxic or metabolically active compounds early on in the screening cascade (at the level of the primary screen). Reduced formazan was first visible in intracellular vesicles. Eventual formazan exocytosis was accelerated via Abeta oligomers.
Human amyloid peptide 1-42 was obtained from a number of commercial vendors such as California Peptide, with lot-choice contingent upon quality control analysis. Quality controls of oligomer preparations consist of Westerns to determine oligomer size ranges and relative concentrations, and the MTT assay to confirm exocytosis acceleration without toxicity. Toxicity was monitored in each image-based assay via quantification of nuclear morphology visualized with the DNA binding blue dye DAPI (Invitrogen). Nuclei that are fragmented are considered to be in late stage apoptosis (Majno and Joris '95) and the test would be rejected. Peptide lots producing unusual peptide size ranges or significant toxicity at a standard 1.5 μM concentration on neurons would also be rejected.
Data handling and analysis were accomplished by Cellomics VTI image analysis software and STORE automated database software. Because of the low dynamic range and neuronal well-to-well variability after three weeks in culture, statistical comparisons are made via pairwise Tukey-Kramer analysis to determine the significance of the separation between compound+Abeta oligomers from Abeta alone, and between compound alone from vehicle. The ability of mature primary neurons to more closely approximate the electrophysiologically mediated signal transduction network of the adult brain justifies this screening strategy. […]

Sequence of Sigma-1 receptors on Jurkat cell membranes (Q99720 whole entry): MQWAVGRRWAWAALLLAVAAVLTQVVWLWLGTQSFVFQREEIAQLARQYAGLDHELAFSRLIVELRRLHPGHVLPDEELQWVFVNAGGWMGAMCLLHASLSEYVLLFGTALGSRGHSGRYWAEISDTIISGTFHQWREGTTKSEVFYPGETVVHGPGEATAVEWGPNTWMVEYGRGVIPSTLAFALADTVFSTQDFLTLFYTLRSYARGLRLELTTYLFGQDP
Sequence of Sigma-2 receptors on membranes from rat cerebral cortex (Q5U3Y7 whole entry): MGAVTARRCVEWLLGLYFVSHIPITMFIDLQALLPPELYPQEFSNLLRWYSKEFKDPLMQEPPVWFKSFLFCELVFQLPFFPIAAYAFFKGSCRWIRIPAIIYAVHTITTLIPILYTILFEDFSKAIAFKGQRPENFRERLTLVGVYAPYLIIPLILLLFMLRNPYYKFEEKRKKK
Sequence of potassium channel hERG (Q12809 whole entry): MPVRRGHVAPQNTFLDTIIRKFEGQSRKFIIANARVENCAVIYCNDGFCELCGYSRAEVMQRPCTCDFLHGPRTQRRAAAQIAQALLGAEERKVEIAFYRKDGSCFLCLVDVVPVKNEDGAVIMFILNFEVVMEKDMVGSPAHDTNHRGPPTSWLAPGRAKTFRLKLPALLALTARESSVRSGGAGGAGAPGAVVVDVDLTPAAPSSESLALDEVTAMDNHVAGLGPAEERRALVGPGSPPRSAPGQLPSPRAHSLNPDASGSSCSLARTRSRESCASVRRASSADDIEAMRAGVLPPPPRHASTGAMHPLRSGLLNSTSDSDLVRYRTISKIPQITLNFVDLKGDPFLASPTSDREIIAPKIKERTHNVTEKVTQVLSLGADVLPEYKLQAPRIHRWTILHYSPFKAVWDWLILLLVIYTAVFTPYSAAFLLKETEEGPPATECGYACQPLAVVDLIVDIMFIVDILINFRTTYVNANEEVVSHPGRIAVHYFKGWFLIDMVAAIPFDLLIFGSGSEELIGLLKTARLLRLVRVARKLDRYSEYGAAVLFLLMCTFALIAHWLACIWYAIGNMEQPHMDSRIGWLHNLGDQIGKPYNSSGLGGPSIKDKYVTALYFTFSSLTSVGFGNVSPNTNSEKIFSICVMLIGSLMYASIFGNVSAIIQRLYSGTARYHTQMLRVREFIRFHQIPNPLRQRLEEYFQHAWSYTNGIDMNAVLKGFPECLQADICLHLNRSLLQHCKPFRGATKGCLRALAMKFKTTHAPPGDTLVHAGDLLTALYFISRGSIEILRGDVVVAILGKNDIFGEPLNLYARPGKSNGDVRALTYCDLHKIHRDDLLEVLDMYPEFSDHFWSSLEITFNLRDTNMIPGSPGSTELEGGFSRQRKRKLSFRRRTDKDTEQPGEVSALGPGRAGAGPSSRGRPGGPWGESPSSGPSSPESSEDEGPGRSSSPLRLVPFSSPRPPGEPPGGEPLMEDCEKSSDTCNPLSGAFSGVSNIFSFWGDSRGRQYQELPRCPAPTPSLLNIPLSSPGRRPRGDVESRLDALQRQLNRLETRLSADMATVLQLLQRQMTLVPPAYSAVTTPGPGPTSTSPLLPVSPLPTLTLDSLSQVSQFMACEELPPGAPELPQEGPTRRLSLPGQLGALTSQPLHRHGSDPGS

Broadly, the pKi is the Ki on a negative log10 scale, so that one unit is a factor of ten. For orientation: log P means the decadic logarithm of the partition coefficient of the neutral form, usually between octanol and water. Lower therefore signals lower lipophilicity. Broadly, the pIC50 is the negative decadic logarithm of the IC50, by convention in mol/L. A higher pIC50 goes with a small IC50. For the compound `CC(C)(CCN1CCC(C2CCOCC2)CC1)c1ccc(C(F)(F)F)cc1` [Compound 1], the pKi in series [1] was 9.70; in series [2] it was 9.15. The “log P” value in series [3] stood at 5.16. In series [4], this compound showed a pIC50 of 6.13.

As usually defined, the pEC50 is the EC50 on a negative log10 scale, so that one unit is a factor of ten. Take `CC(C)=CC(CC(C)(C)c1ccc(C)cc1)N1CCC(C2CCOCC2)CC1` (stereo not drawn) [Compound 3]: the pKi in series [1] is 9.12. Besides, the pEC50 in series [5] is 6.60. For the same compound, in series [3], the “log P” value amounted to 6.22.

Take `COCCCC1CCN(CCC(C)(C)c2ccc(C(F)(F)F)cc2)CC1` [Compound 4]: the pKi was 9.10 in series [1] and 9.30 in series [2]. In addition, the “log P” value in series [3] is listed as 5.35. In series [4], this compound had a pIC50 of 5.66.

Turning to `CCC(C)(O)CCNC(C)CC(C)(C)c1ccc(C(F)(F)F)cc1` (stereo not drawn) [Compound 12], the results for the pKi in series [1] and in series [2] were 8.57 and 9.00, respectively. In addition, the “log P” value in series [3] stood at 4.13. This compound also gave a pIC50 in series [4] of 6.01.

As for `CC(C)=CC(CC(C)(C)c1ccc(Cl)cc1)N1CCC(c2ccncc2)CC1` (stereo not drawn) [Compound 24], in series [1], the pKi was 8.00. Moreover, the pEC50 in series [5] is 4.70. Also, the “log P” value in series [3] was 6.31.

Regarding `CC(C)=CC(CC(C)(C)c1ccc(Cl)cc1)N1CCC(c2ccc(S(C)(=O)=O)cc2)CC1` (stereo not drawn) [Compound 32], the pKi in series [1] was 7.49. Besides, the pEC50 in series [5] was 5.16. For the same compound, the “log P” value in series [3] is recorded as 6.37.

As to `CC(C)=CC(CC(C)(C)c1ccc(C)cc1)N1CCC(C(C)C)CC1` (stereo not drawn) [Compound 33], the pKi in series [1] is 7.48. Moreover, the pEC50 in series [5] is 5.72. For the same compound, the “log P” value in series [3] turned out to be 7.04.

Take `CC(C)=CC(CC(C)(C)c1ccc(C)cc1)N1CCN(CC(C)C)CC1` (stereo not drawn) [Compound 45]: in series [1], the pKi was 7.07. In addition, the pEC50 in series [5] is 5.59. Also, in series [3], the “log P” value amounted to 6.26.

`CC(C)=CC(CC(C)(C)c1ccc(Cl)cc1)N1CCC(c2cccc(S(C)(=O)=O)c2)CC1` (stereo not drawn) [Compound 46]: in series [1], the pKi is 7.07. Moreover, the pEC50 in series [5] was 5.32. The “log P” value in series [3] is given as 6.37.

For the compound `CC(C)=CC(CC(C)(C)c1ccc(S(C)(=O)=O)cc1)N1CCC(c2ccncc2)CC1` (stereo not drawn) [Compound 51], the pKi in series [1] was 7.00. Moreover, the negative-log EC50 (pEC50) in series [5] is 4.70. In series [3], the “log P” value is recorded as 4.55.

For the compound `CC(C)=CC(CC(C)(C)c1ccc(C)cc1)NCC1CCCCC1` (stereo not drawn) [Compound 52], in series [1], the pKi was 6.96. Moreover, in series [5], the pEC50 was 5.32. Further, in series [3], the lipophilicity (log P) came out at 6.9.

Consider `CC(C)=CC(CC(C)(C)c1ccc(C)cc1)NCc1ccc(C)cc1` (stereo not drawn) [Compound 54], for which, in series [1], the pKi was 6.92. For the same compound, in series [5], the pEC50 was 5.49. Besides, in series [3], the “log P” value worked out at 7.02.

For `CC(C)=CC(CC(C)(C)c1ccc(C)cc1)NCC1CCOCC1` (stereo not drawn) [Compound 57], the pKi in series [1] was 6.82. For the same compound, the pEC50 in series [5] is 6.14. The “log P” value in series [3] is reported as 5.21.

For the compound `CC(C)=CC(CC(C)(C)c1ccc(C)cc1)N1CCN(c2ccccc2)CC1` (stereo not drawn) [Compound 60], the pKi in series [1] is 6.68. Besides, the pEC50 in series [5] is 6.00. The “log P” value in series [3] is on record as 6.91.

As for `CC(C)=CC(CC(C)(C)c1ccc(Cl)cc1)N1CCC(c2ccnc(N3CCCC3)c2)CC1` (stereo not drawn) [Compound 63], the pKi in series [1] was 6.62. In series [5], the pEC50 was 5.82. Also, the “log P” value in series [3] is on record as 7.42.

For `CC(C)=CC(CC(C)(C)c1ccc(Cl)cc1)N1CCC(c2ccnc(N3CCOCC3)c2)CC1` (stereo not drawn) [Compound 67], in series [1], the pKi was 6.52. In addition, in series [5], the pEC50 was 4.89. Further, the “log P” value in series [3] was 6.8.

As for `COc1ccc(C(C)(C)CC(C=C(C)C)NCC2CCOCC2)cc1` (stereo not drawn) [Compound 74], in series [1], the pKi is 6.37. Also, the pEC50 in series [5] is 4.89. The “log P” value in series [3] was 4.54.

Turning to `CC(C)=CC(CC(C)(C)c1ccc(C)cc1)N[C@H](C)c1ccccc1` (stereo partly drawn) [Compound 80], the pKi in series [1] was 5.89. Moreover, the pEC50 in series [5] was 6.19. For the same compound, in series [3], the “log P” value was 6.93.

Turning to `CC(C)=CC(CC(C)(C)c1ccc(F)cc1)N1CCC(CCOC2CCOC2)CC1` (stereo not drawn) [Compound 179], the pKi in series [2] was 6.37. For the same compound, the “log P” value in series [3] is given as 5.49. Besides, in series [4], the negative-log IC50 (pIC50) was 5.40.

Turning to `CC(C)=CC(CC(C)(C)c1ccc(C(F)(F)F)cc1)N1CCC(CCOC2CCOC2)CC1` (stereo not drawn) [Compound 182], the pKi in series [2] was 6.80. Besides, the “log P” value in series [3] stood at 6.22. In addition, in series [4], the pIC50 is 5.59.

Take `CC(C)=CC(COc1ccccc1)N1CCC(O)CC1` (stereo not drawn) [Compound 184]: the pKi in series [2] is 6.66. For the same compound, the “log P” value in series [3] was 2.57. Besides, the pIC50 in series [4] was 4.21.

Regarding `CC(C)=CC(COc1ccc(Cl)cc1)N1CCC(O)CC1` (stereo not drawn) [Compound 186], the pKi in series [2] is 7.38. The “log P” value in series [3] is on record as 3.18. Besides, the pIC50 in series [4] is 5.64.

For the compound `CC(C)=CC(CC(C)(C)c1ccc(C(F)(F)F)cc1)N1CCC2(CC1)OCc1ccccc12` (stereo not drawn) [Compound 189], the pKi in series [2] is 7.43. For the same compound, the “log P” value in series [3] was found to be 6.89. Moreover, the pIC50 in series [4] was 5.24.

For the compound `CC(CC(C)(C)c1ccc(Cl)cc1)N1CCC(O)C1` (stereo not drawn) [Compound 250], the pEC50 in series [5] was 4.82. Further, the “log P” value in series [3] stood at 3.51. Moreover, in series [4], the pIC50 is 4.55.

With `COCC1CCCN1C(C=C(C)C)CC(C)(C)c1ccccc1` (stereo not drawn) [Compound 252], the pEC50 in series [5] was 4.82. Moreover, in series [3], the “log P” value is on record as 5.07. The compound further gave a pIC50 in series [4] of 5.15.

Source of the values: US11214540B2, “Compositions for treating neurodegenerative diseases” (COGNITION THERAPEUTICS, INC., priority 2017, dated 2022).
